System: imiquimod-induced mouse psoriasis model
Assay: Imiquimod-induced C57 mouse psoriasis model
Format: in vivo, C57BL/6 mice
Details: p<0.0001
Description: Then 10% of the total volume of Solutol was added, and the mixture was subjected to vortex ultrasonic treatment until clear. […] The compound was formulated fresh for each use.
B. Imiquimod sensitization and drug intervention on C57BL/6J mice were conducted, with specific administration times shown in Table 6. • i. On Day 1, the backs of the mice were shaved, ensuring consistent area using a mold, approximately 2 cm×3 cm, and 60 mice were selected; • ii. the mice were randomly divided into 6 groups based on body weight and right ear thickness, with 10 mice per group; • iii. 6 to induce psoriasis symptoms in the model mice, imiquimod was applied on the back skin and right ear of the mice in groups G2-G6 for sensitization at noon on Day 0, and this continued for 7 days. • iv. […] Endpoint sampling of the mice was performed on Day 5 or Day 7.
• Clinical score and right ear thickness.

C=C1/C(=C\C=C2/CCC[C@]3(C)[C@@H]([C@H](C)CCCC(C)(C)O)CC[C@@H]23)C[C@@H](O)C[C@@H]1O [calcitriol]
inhibition rate relative to vehicle control (AUC of clinical score) (ointment 75 mg back + 24 mg right ear/mouse topical QD): 44.5%

CC(=O)OCC(=O)[C@@]1(O)[C@H](C)C[C@H]2[C@@H]3CCC4=CC(=O)C=C[C@]4(C)[C@@]3(F)[C@@H](O)C[C@@]21C [dexamethasone, Dexamethasone acetate]
inhibition rate relative to vehicle control (AUC of clinical score) (5 mpk p.o. QD): 20.7%
